Drawing on patent publication US5547965A, “Use of substituted amines for the treatment of brain function disorders” (Bayer Aktiengesellschaft, priority 1994, dated 1996), this text covers ED50 and pI30 for 16 compounds.

Structures are written as SMILES.

The first assay relates to rats. Put plainly: rat forced swimming test. The following applies: po, 5 min, period of immobility over 5 minutes, administered between the two swimming tests. The assay is classed as in vivo. The source says:
The activity of the substituted amines described in the treatment and prevention of affective disorders is confirmed with the aid of the "rat forced swimming test". This behavioural model was described for the first time by R. D. Porsolt et al. (Nature 266; 730, 1977) and today is a generally recognized in-vivo screening model for the discovery of new antidepressants. It is based on the observation that rats in a hopeless situation remain in an immobile position ("behavioural despair"). In a preliminary test, young adult rats (3-4 months old) are placed individually for 20 minutes in glass cylinders (height 40 cm, diameter 20 cm) which are filled with water to a height of 15 cm. 24 hours after this preliminary test, the animals are again transferred to the cylinders and the period of immobility is measured over a space of time of 5 minutes.
The substituted amines described are administered in the time interval between the two swimming tests. Controls receive the vehicle.
Regarding `O=[N+]([O-])N=C1NCCN1Cc1cccnc1` [Example 12], the median effective dose (ED50) (in general, the dose at which the effect has come halfway, by size or by number of responders) was 2.5 mg/kg.

For `O=[N+]([O-])C=C1NCCN1Cc1cnc(Cl)s1` [Example 10], the 50% effect level (ED50) was put at a dose of 1.5 mg/kg.

Consider `CC(=O)NCCN1CC([N+](=O)[O-])=C2N(Cc3ccc(Cl)nc3)CCN2C1` [Example 3], for which the 50% effect level (ED50) was put at a dose of 4.1 mg/kg.

The target in a further assay is Nicotine receptor. Put plainly: [3H]-cytisine displacement in rat brain membrane preparation. It counts as binding. The following applies: negative common logarithm of the concentration giving 50% displacement of specifically bound [3H]-cytisine; rat brain homogenate, 22° C., 60 min. On the procedure:
The effect on nicotinergic receptors of the central nervous system is determined by a generally customary standard method for receptor binding studies (E. C. Hulme, Editor, Receptor-Ligand Interactions, Oxford University Press, 1992, pp 1-458). The binding was measured here by displacement of [^3 H]-cytisine by the active compounds in the rat brain membrane preparation.
Rats were sacrificed by decapitation and the entire brain was then removed immediately and processed. All following steps were carried out with cooling to 4° C. The brain was homogenized in sucrose solution (110 g of sucrose/l; 20 ml of solution per 1 g of brain mass) with the aid of a mixer. Coarse constituents were removed by centrifugation of the homogenate for 10 min at 1200 g and subsequent filtration through 5 layers of muslin. The suspension which remained (called homogenate in the following) was frozen and stored at -20° C. until use.
Buffer A for the test batch: 100 mM K2 HPO4 /KH2 PO4, pH 7.4, containing 1 g/ of bovine serum albumin.
For the determination of the displacement of [^3 H]-cytisine by the active compounds the following batch (1 ml total volume) was mixed together: 250 μl of thawed homogenate, 600 μl of buffer, 100 μl of active compound solution in buffer A (containing a concentration series in dilution steps with a factor of 10 between a maximum of 10^-2 M and a minimum of 10^-10 M of active compound, and 2 μl of methanol, from a concentrated stock solution of the active compounds), 50 μl of (^3 H)-cytisine solution in buffer A (containing 1.48 pmol of (^3 H)-cytisine, corresponding to 1.67 KBq, and 5 μl of ethanol, from a concentrated stock solution). In controls which contained no homogenate or no active compound, the missing volume was replaced by buffer A.
The batches were incubated at 22° C. in a shaking water bath for 60 min. To end incubation of the batches, 3 ml of ice-cold buffer A was added in each case and the whole solution was rapidly filtered through GF/C glass fibre filters. The filters were premoistened with a 1% strength solution of Prosil in buffer A. The filters were also washed twice with 3 ml of ice-cold buffer A each time. The filters were then removed and the radioactivity bound to the filters was determined in a liquid scintillation apparatus after addition of 10 ml of suitable scintillation cocktail.
All values were determined in duplicate and averaged. The concentration of active compound which leads to a 50% displacement of the specifically bound [^3 H]-cytisine was calculated from the concentration series by a logit transformation or by the 4-parameter logistic model (T. Chard; An Introduction to Radioimmunoassay and Related Techniques; Elsevier, Amsterdam, 1990; pp 613-171; statistical assessment by computer). The negative common logarithm of this concentration is called the pI50 in the following.
As to `O=[N+]([O-])N=C1NCCN1Cc1cccnc1` [Example 12], the pI30 was 5.7.

For the compound `COc1cccc(CN2CCN(Cc3ccc(Cl)nc3)C2=N[N+](=O)[O-])c1` [Example 4], the pI30 is reported as 5.1.

Compound `CC(=NC#N)N(C)Cc1ccc(Cl)nc1` [Example 5] yielded a pI30 of 6.2.

`O=[N+]([O-])C=C1NCCN1Cc1ccc(Cl)c(F)c1` [Example 2] returned a pI30 of 5.3.

With `CN1CN(C)C(=N[N+](=O)[O-])N(Cc2ccc(Cl)nc2)C1` [Example 15], the pI30 is listed as 5.2.

Take `N#CC=C1NCCN1Cc1ccc(Cl)nc1` [Example 11]: the pI30 was 5.8.

On to `Cc1ccc(CN2CCNC2=C[N+](=O)[O-])cn1` [Example 9], for which the pI30 worked out at 6.4.

As for `CCCC(c1ccc(F)cc1)N1CNC(NCc2ccc(Cl)nc2)=C([N+](=O)[O-])C1` (stereo not shown) [Example 1], the pI30 is reported as 6.6.

As for `O=[N+]([O-])C=C1NCCN1Cc1ccncc1` [Example 8], the pI30 is listed as 4.6.

Compound `O=[N+]([O-])C=C1NCCN1Cc1cccnc1` [Example 7] returned a pI30 of 5.9.

As for `N#CC=C1CCCN1Cc1ccc(Cl)nc1` [Example 13], the pI30 is recorded as 6.6.

Regarding `O=[N+]([O-])C=C1NCCN1c1ccc(Cl)nc1` [Example 16], the pI30 was found to be 4.6.

For the compound `O=[N+]([O-])C=C1NCCN1Cc1cnc(Cl)s1` [Example 10], the pI30 is 6.2.

Regarding `CC(=O)NCCN1CC([N+](=O)[O-])=C2N(Cc3ccc(Cl)nc3)CCN2C1` [Example 3], the pI30 is 6.5.

Compound `O=[N+]([O-])C=C1OCCN1Cc1ccc(Cl)nc1` [Example 14] showed a pI30 of 6.4.

On to `NC(=N[N+](=O)[O-])N1CCN(Cc2ccc(Cl)nc2)C1` [Example 6], for which the pI30 is on record as 4.8.
